Results: article PMC12679539, “Synthesis and evaluation of nitroheterocyclic aromatic adamantane amides with trypanocidal activity. Part II” (RSC Medicinal Chemistry, 2025)

Legend:
L6 cells = assay: Cytotoxic activity against rat skeletal myoblast L6 cells (Alamar Blue); type: cell-based; details: 120 h, cytotoxicity, 5 days
Procedure: The cytotoxicity against mammalian cells was assessed using microtitre plates. Briefly, L6 cells (a rat skeletal muscle line) were seeded at 1 × 10^4 mL^−1 in 200 μL of RPMI-1640 growth medium (with 10% fetal calf serum) containing 7 different compound concentrations in a range previously established to encompass both the IC50 and IC90 values. The plates were incubated for 5 days at 37 °C and 20 μL Alamar Blue (Biosource Ltd, Wilton, North Yorkshire England.) was then added to each well. After an additional 8 hours incubation, the fluorescence was determined using a Gemini fluorescent plate reader (Molecular Devices). Inhibition of growth was calculated by comparison with control values and IC50 and IC90 values were determined in triplicate using linear regression analysis.

[1] = test system: L. infantum promastigotes; assay: Activity against Leishmania infantum promastigotes (resazurin assay); type: cell-based, Leishmania infantum (MHOM/MA/67/ITMAP-263); details: for IC50: Leishmania infantum, promastigotes, 72 h, 95% CI in brackets
Procedure: Promastigotes from the L. infantum strain (MHOM/MA/67/ITMAP-263) were cultivated in 5 ml of Schneider's insect medium, which was supplemented with 10% heat-inactivated fetal bovine serum (FBS), 200 U ml^−1 of penicillin/streptomycin, 6 μg ml^−1 of phenol red, and 5 mM of HEPES. The cultures were maintained in an incubator at 27 °C and diluted to a concentration of 2 × 10^5 cells per ml every 5 days. For the assays the parasites used were equivalent to late/log with two or three days of culture.
The efficacy of the compounds against L. infantum promastigotes was evaluated using a resazurin-based assay. Parasites were added to 100 μl of serial dilutions of the compounds in supplemented complete medium at a cell density of 5 × 10^5 ml^−1. As a quality control, a dose–response curve with the antileishmanial drug miltefosine was included in all assays. The final volume of each assay was 200 μl per well, and each condition was tested in duplicate. After a 72-hour incubation under specific conditions for each parasite, 20 μl of a 0.5 mM resazurin solution was added, and the plates were incubated for an additional 4 hours under the same conditions. Fluorescence was measured at 544 nm for excitation and 590 nm for emission using a Synergy 2 Multi-Mode Reader (Biotek, Winooski, VT, USA). Results were expressed as the percentage of parasite growth inhibition compared to controls (untreated parasites) and represent the average of at least three independent experiments. The effect was evaluated by determining the IC50 value (the concentration required to inhibit 50% growth), calculated using non-linear regression curves via GraphPad Prism version 8.1.1 for Windows (GraphPad Software, San Diego, CA, USA).

Structure (SMILES) | IC50 (L6 cells) | IC50 [1] | SI (promastigotes) CC50/Li IC50 ([1]; THP-1 CC50 / L. infantum promastigote IC50)
O=C(CCc1ccc(C23CC4CC(CC(C4)C2)C3)cc1)NCCn1cnc([N+](=O)[O-])n1 [6c, 3-[4-(1-Adamantyl)phenyl]-N-[2-(3-nitro-1H-1,2,4-triazol-1-yl)ethyl]propanamide] | 23 ± 2 µM | 0.42 µM | SI > 238
O=C(Cc1ccc(C23CC4CC(CC(C4)C2)C3)cc1)NCCn1cnc([N+](=O)[O-])n1 [6b, 2-[4-(1-Adamantyl)phenyl]-N-[2-(3-nitro-1H-1,2,4-triazol-1-yl)ethyl]acetamide] | 30 ± 2 µM | 0.49 µM | –
O=C(Cc1ccc(C23CC4CC(CC(C4)C2)C3)cc1)NCCCn1cnc([N+](=O)[O-])n1 [6e, 2-[4-(1-Adamantyl)phenyl]-N-[3-(3-nitro-1H-1,2,4-triazol-1-yl)propyl]acetamide] | 23 ± 3 µM | 0.31 µM | –
